Patent US8853215B2, “Derivatives of N-acyl-N′-phenylpiperazine useful (inter alia) for the prophylaxis or treatment of diabetes” (Takeda Pharmaceutical Company Limited, priority 2009, dated 2014)

Tests used:
human RBP4 = human RBP4 (Homo sapiens (Human), UniProt P02753); test: Binding assay by Retinol-RBP4-TTR ELISA; details: for IC50: retinol 50 nM, His-tagged human RBP4, biotinylated human TTR, read-out: human RBP4 binding inhibitory activity (IC50 nM); for inhibition at 10 µM: at 10 μM compound, read-out: human RBP4 binding inhibitory activity(% at 10 μM)
Description: The action of the compound of the present invention to inhibit binding of RBP4 and retinol and TTR was evaluated using the Retinol-RBP4-TTR ELISA system shown below.
1F: Binding Assay by Retinol-RBP4-TTR ELISA
This ELISA system detects a complex of RBP4 and TTR based on a retinol-dependent binding of RBP4 to TTR.
His-tagged human RBP4 used was prepared in the above-mentioned 1C.
Biotinylate human TTR used was prepared in the above-mentioned 1E.
Streptavidin (20 μl) (10 μg/ml Streptavidin type II (Wako Pure Chemical Industries, Ltd.), 10 mM Tris-HCl (pH 7.5), 10 mM NaCl) was added to a 384 well black plate (Nunc MaxiSorp, Thermo Fisher Scientific Inc.), and the plate was subjected to centrifugation (1000 rpm, 1 min) and coated overnight at 4° C. The plate was washed twice with PBST (PBS, 0.05% Tween 20, 100 μl/well) and blocked with 25% Block Ace (Snow Brand Milk Products Co., Ltd., PBS, 100 μl/well). The plate was subjected to centrifugation (1000 rpm, 1 min) and incubated at room temperature for 4 hr or overnight at 4° C. The plate was washed twice with PBST (PBS, 0.05% Tween 20, 100 μl/well), and biotinylate human TTR (stock solution concentration 1.0 mg/ml) diluted 750-fold with PBST was added at 20 μl/well. The plate was subjected to centrifugation (1000 rpm, 1 min) and stood still at room temperature for 1.5 hr or overnight at 4° C. The plate was washed 3 times with PBST (100 μl/well), and His-tagged human RBP4 (stock solution concentration 0.96 mg/ml) diluted 4000-fold with a reaction buffer (50 mM Tris-HCl, 150 mM NaCl, 0.005% Tween 20, 1 mM DTT, 0.1% BSA) was added at 10 μl/well. The dilution series (8 doses from 10 mM, 200-fold concentration) of the compound was prepared with DMSO, and 1 μl of each was added to a reaction buffer (200 μl) containing retinol (50 nM) (Sigma-Aldrich Co.). A reaction buffer (200 μl) containing retinol and added with DMSO was used as a positive control, and reaction buffer (200 μl) free of retinol and added with DMSO was used as a negative control. Mixed solutions of retinol and the compound were added to the plate at 15 μl/well. The plate was stirred in a platemixer subjected to centrifugation (1000 rpm, 1 min) and reacted at room temperature for 2 hr. A 35% Block Ace solution diluted with the reaction buffer was added at 10 μl/well, centrifuged (1000 rpm, 1 min) and reacted at room temperature for 30 min. The plate was washed 3 times with PBST (100 μl/well) and SuperSignal ELISA Femto Maximum Sensitivity Substrate reagent (PIERCE, Thermo Fisher Scientific Inc.) was added at 30 μl/well, and the luminescence was measured by a platereader (Wallac).
The binding inhibitory activity of the compound was determined by 100×(positive control value-test compound value)/(positive control value-negative control value). The binding activity (IC50) was calculated from the binding inhibitory rate at each compound concentration using a graph drawing software, GraphPad Prism (GraphPad Software Inc.).

RBP4 = RBP4 (Mus musculus (Mouse), UniProt Q00724); test: Single administration test in mice, plasma RBP4 by ELISA; assay type: in vivo; details: male C57BL/6J or ICR mice, 50 mg/kg oral single dose, mean±SD; for RBP4 (% of initial/Control) 0 hr: 0 hr (just before the administration); for RBP4 (% of initial/Control) 4 hr: 4 hr after administration; for RBP4 (% of initial/Control) 7 hr: 7 hr after administration; for RBP4 (% of initial/Control) 24 hr: 24 hr after administration
Description: The action of the compounds of the present invention to reduce plasma RBP4 level was evaluated using the animal model shown below.
Male C57BL/6J and ICR mice were purchased from Charles River (Japan) and maintained on a normal diet (CE2, CLAE Japan, Inc.) and tap water. Animals were housed in a temperature-controlled room adjusted to a 12-hour light/12-hour dark cycle beginning at 7:00 and 19:00, respectively. All procedures were conducted according to the experimental animal care use committee of Takeda Pharmaceutical Company.
Male 6-12-week-old C57BL/6J or ICR mice were housed individually and fed CE2 for 4-6 days. After acclimatization, mice were divided into groups based on their body weight. Compounds were suspended in 0.5% (w/v) methylcellulose in water and given orally to mice at a dose of 50 mg/10 mL/kg of body weight (three to five mice per group). Blood samples were obtained from orbital vein with sodium heparin as an anticoagulant at time 0 hr (just before the administration), 4 hr, 7 hr, and 24 hr after the administration, followed by plasma separation by centrifugation. Plasma RBP4 levels were measured by enzyme-linked immunosorbent assay described in the following section.
Plasma samples were analyzed in duplicate for RBP4 by an enzyme-linked immunosorbent assay. Mouse recombinant RBP4 (Takeda Pharmaceutical Company) was used as standards, and the assay range was 0.313-20 ng/ml. Samples were diluted 10,000-fold with phosphate-buffered saline (PBS) (Sigma) containing 10% (w/v) BlockAce (Dainippon Sumitomo Pharma Co., Ltd). Rabbit anti-RBP4 polyclonal antibody (100 μL/well of 50 μg/mL, Hokudo Co, Ltd) was incubated in a 96-well plate (Nalge Nunc International K.K.) for overnight at 4° C. Subsequently, the plates were washed with PBS-T (Wako Pure Chemical Industries, Ltd.) and blocked with PBS containing 25% BlockAce for 1 hr at room temperature. After another washing with PBS-T, samples and standards were applied to the well, and the plates were incubated for 2 hr at room temperature. After a washing the wells, peroxidase-labeled (Dojindo Laboratories) anti-RBP4 (100 μL/well) was added to the wells, and then the plates were incubated for 1 hr at room temperature. After a final washing with PBS-T, substrate solution 3,3,5,5-tetramethylbenzidine (Sigma) was added to the wells, and the plates were placed in the dark for 5-20 min at room temperature. The reaction was stopped with 0.5 M sulphuric acid and the optical density was measured with a spectrophotometer at 450 nm. The changes in plasma RBP4 levels were expressed as % of initial/Control. All data are presented as mean±SD.

SMILES | IC50 (human RBP4) [nM] | inhibition at 10 µM (human RBP4) [%] | RBP4 (% of initial/Control) 0 hr (RBP4) | RBP4 (% of initial/Control) 4 hr (RBP4) | RBP4 (% of initial/Control) 7 hr (RBP4) | RBP4 (% of initial/Control) 24 hr (RBP4)
CC(C)(C)c1ccccc1N1CCN(C(=O)C23CC4CC(CC(C(=O)O)(C4)C2)C3)CC1 [Example 1, 3-{[4-(2-tert-Butylphenyl)piperazin-1-yl]carbonyl}adamantane-1-carboxylic acid] | 95 |  |  |  |  | 
CC(C)(C)c1ccccc1N1CCN(C(=O)c2c[nH]cn2)CC1 [Example 3, 1-(2-tert-Butylphenyl)-4-(1H-imidazol-4-ylcarbonyl)piperazine] | 3.8 |  |  |  |  | 
CC(C)(C)c1ccccc1N1CCN(C(=O)c2ccc(-c3noc(=O)[nH]3)cc2)CC1 [Example 19, 3-(4-{[4-(2-tert-Butylphenyl)piperazin-1-yl]carbonyl}phenyl)-1,2,4-oxadiazol-5(4H)-one] | 49 |  |  |  |  | 
CC(C)(C)c1ccccc1N1CCN(C(=O)c2ccc(OCC(=O)O)cc2)CC1 [Example 24, (4-{[4-(2-tert-Butylphenyl)piperazin-1-yl]carbonyl}phenoxy)acetic acid] |  | 100 | 100.0 ± 36.4 % of initial/Control | 30.9 ± 2.7 % of initial/Control | 32.2 ± 2.2 % of initial/Control | 73.1 ± 25.6 % of initial/Control
CC(C)(C)c1ccccc1N1CCN(C(=O)c2ccc(SCC(=O)O)nc2)CC1 [Example 25, [(5-{[4-(2-tert-Butylphenyl)piperazin-1-yl]carbonyl}pyridin-2-yl)sulfanyl]acetic acid] |  | 100 | 100.0 ± 7.3 % of initial/Control | 45.0 ± 1.9 % of initial/Control | 57.6 ± 5.6 % of initial/Control | 75.8 ± 6.0 % of initial/Control
CC(C)(C)c1ccccc1N1CCN(C(=O)c2ccc(C(=O)O)cc2)CC1 [Example 34, 4-{[4-(2-tert-Butylphenyl)piperazin-1-yl]carbonyl}benzoic acid] | 480 |  |  |  |  | 
CC(C)(C)c1ccccc1N1CCN(C(=O)C(=O)NS(=O)(=O)NCC2CC2)CC1 [Example 39, 2-[4-(2-tert-Butylphenyl)piperazin-1-yl]-N-[(cyclopropylmethyl)sulfamoyl]-2-oxoacetamide] | 430 | 97 | 100.0 ± 5.8 % of initial/Control | 37.1 ± 1.9 % of initial/Control | 45.1 ± 6.2 % of initial/Control | 86.6 ± 12.4 % of initial/Control

Further lines, results first:

IC50 (human RBP4) [nM] | inhibition at 10 µM (human RBP4) [%] | RBP4 (% of initial/Control) 0 hr (RBP4) | RBP4 (% of initial/Control) 4 hr (RBP4) | RBP4 (% of initial/Control) 7 hr (RBP4) | RBP4 (% of initial/Control) 24 hr (RBP4) | SMILES
250 |  |  |  |  |  | CC(C)(C)c1ccccc1N1CCN(C(=O)c2ccc(OCC3CCNCC3)cc2)CC1 [Example 41, 1-(2-tert-Butylphenyl)-4-{[4-(piperidin-4-ylmethoxy)phenyl]carbonyl}piperazine]
 | 100 | 100.0 ± 29.7 % of initial/Control | 39.9 ± 3.4 % of initial/Control | 30.2 ± 1.3 % of initial/Control | 93.6 ± 15.1 % of initial/Control | CC(C)(C)c1ccccc1N1CCN(C(=O)CCC(=O)O)CC1 [Example 53, 4-(4-(2-tert-Butylphenyl)piperazin-1-yl)-4-oxobutanoic acid]
58 |  |  |  |  |  | CC(C)(C)c1ccccc1N1CCN(C(=O)Nc2ccccc2)CC1 [Example 56, 4-(2-tert-Butylphenyl)-N-phenylpiperazine-1-carboxamide]
 | 100 | 100.0 ± 26.6 % of initial/Control | 44.8 ± 2.9 % of initial/Control | 40.3 ± 1.6 % of initial/Control | 94.9 ± 22.6 % of initial/Control | CC(C)(C)c1cc(Br)ccc1N1CCN(C(=O)C(=O)O)CC1 [Example 67, [4-(4-Bromo-2-tert-butylphenyl)piperazin-1-yl](oxo)acetic acid]
30 | 99 | 100.0 ± 13.8 % of initial/Control | 47.7 ± 2.7 % of initial/Control | 44.4 ± 0.7 % of initial/Control | 50.0 ± 2.4 % of initial/Control | CC(C)(C)c1cc(Br)ccc1N1CCN(C(=O)CC(=O)O)CC1 [Example 69, 3-[4-(4-Bromo-2-tert-butylphenyl)piperazin-1-yl]-3-oxopropanoic acid]
150 | 100 | 100.0 ± 17.1 % of initial/Control | 51.2 ± 1.0 % of initial/Control | 56.7 ± 2.4 % of initial/Control | 120.9 ± 9.0 % of initial/Control | CC(C)(C)c1ccccc1N1CCN(C(=O)C2(C(=O)O)CC2)CC1 [Example 71, 1-{[4-(2-tert-Butylphenyl)piperazin-1-yl]carbonyl}cyclopropanecarboxylic acid]
 | 99 | 100.0 ± 12.5 % of initial/Control | 54.6 ± 4.1 % of initial/Control | 74.2 ± 15.5 % of initial/Control | 101.5 ± 9.7 % of initial/Control | Cc1ccc(N2CCN(C(=O)C(=O)O)CC2)c(C(C)(C)C)c1 [Example 82, [4-(2-tert-Butyl-4-methylphenyl)piperazin-1-yl](oxo)acetic acid]
34 |  |  |  |  |  | CC(C)(C)c1ccccc1N1CCN(C(=O)CC2NC(=O)NC2=O)CC1 (stereo not drawn) [Example 90, 5-{2-[4-(2-tert-Butylphenyl)piperazin-1-yl]-2-oxoethyl}imidazolidine-2,4-dione]
330 |  |  |  |  |  | CC(C)(C)c1ccccc1N1CCN(C(=O)C(O)CO)CC1 (stereo not drawn) [Example 110, 3-[4-(2-tert-Butylphenyl)piperazin-1-yl]-3-oxopropane-1,2-diol]
